For orientation: IC50 means the concentration at which inhibition is half-maximal. Read a low IC50 as greater potency.

The source of these data is patent publication US20230062100A1, “SUBSTITUTED AMINOQUINOLONES AS DGKALPHA INHIBITORS FOR IMMUNE ACTIVATION” (Bayer Aktiengesellschaft, priority 2019, published 2023).

DGKα, sequence (P23743 with tags, fused parts or gaps): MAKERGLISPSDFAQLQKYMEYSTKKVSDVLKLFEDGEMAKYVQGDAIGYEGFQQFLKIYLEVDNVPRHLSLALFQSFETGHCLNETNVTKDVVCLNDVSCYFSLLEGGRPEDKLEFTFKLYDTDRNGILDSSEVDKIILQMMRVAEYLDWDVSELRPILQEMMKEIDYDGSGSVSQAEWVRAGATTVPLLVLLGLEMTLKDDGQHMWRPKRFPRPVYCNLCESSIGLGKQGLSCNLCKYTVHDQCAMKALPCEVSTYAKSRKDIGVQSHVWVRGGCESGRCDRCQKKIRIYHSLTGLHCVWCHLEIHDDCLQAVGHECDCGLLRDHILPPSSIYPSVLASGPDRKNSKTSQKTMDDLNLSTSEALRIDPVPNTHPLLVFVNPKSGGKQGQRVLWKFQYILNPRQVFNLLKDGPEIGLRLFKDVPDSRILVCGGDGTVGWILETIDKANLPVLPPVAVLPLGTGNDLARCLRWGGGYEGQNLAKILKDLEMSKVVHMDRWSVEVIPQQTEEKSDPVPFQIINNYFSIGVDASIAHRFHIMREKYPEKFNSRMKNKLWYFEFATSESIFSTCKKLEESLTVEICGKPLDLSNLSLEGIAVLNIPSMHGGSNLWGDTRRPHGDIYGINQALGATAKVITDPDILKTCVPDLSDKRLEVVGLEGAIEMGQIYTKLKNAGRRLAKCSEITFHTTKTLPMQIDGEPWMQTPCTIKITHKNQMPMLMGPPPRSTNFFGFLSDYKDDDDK

In the experiment the target is DGKα (Homo sapiens, UniProt P23743). The experiment can be described thus: Human DGKα kinase activity inhibition assay (ADP-Glo). The conditions noted are these: in vitro human DGKα kinase activity inhibition assay. Format: biochemical. In a few lines:
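C-terminally FLAG-tagged full-length human DGKα from baculovirus/insect cells (typically ~0.1 nM) phosphorylated 1,2-dioleoyl-sn-glycerol in octyl-β-D-glucopyranoside micelles in MOPS pH 7.4. ADP formed was quantified by ADP-Glo luminescence after 1 h ATP depletion at 22 °C.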
For orientation: ADP-Glo first removes unused ATP, then detects ADP through luciferase.
Turning to `COc1cccc(OC2CCN(c3c(C#N)c(=O)n(C)c4ccc(Br)cc34)CC2)c1` [Example 138, 6-bromo-4-[4-(3-methoxyphenoxy)piperidin-1-yl]-1-methyl-2-oxo-1,2-dihydroquinoline-3-carbonitrile], half-maximal inhibition (IC50) required 1.5 nM.
Under `COc1cccc(OC2CCN(c3c(C#N)c(=O)n(C)c4ccc(C)cc34)CC2)c1` [Example 152, 4-[4-(3-methoxyphenoxy)piperidin-1-yl]-1,6-dimethyl-2-oxo-1 2-dihydroquinoline-3-carbonitrile] stands 3.8 nM; under `Cc1cccc(COC2CCN(c3c(C#N)c(=O)n(C)c4ccccc34)CC2)c1` [Example 108, 1-methyl-4-{4-[(3-methylphenyl)methoxy]piperidin-1-yl}-2-oxo-1,2-dihydroquinoline-3-carbonitrile], 10 nM; under `COc1ccccc1CC1CCN(c2c(C#N)c(=O)n(C)c3ccccc23)CC1` [Example 94, 4-{4-[(2-methoxyphenyl)methyl]piperidin-1-yl}-1-methyl-2-oxo-1,2-dihydroquinoline-3-carbonitrile], 28 nM.
For the compound `Cn1c(=O)c(C(N)=O)c(N2CCC(Oc3ccc(OC(F)(F)F)cc3)CC2)c2ccc(Cl)cc21` [Example 98, 7-chloro-1-methyl-2-oxo-4-{4-[4-(trifluoromethoxy)phenoxy]piperidin-1-yl}-1,2-dihydroquinoline-3-carboxamide], it took 1.9 nM to reach half-maximal inhibition (IC50).
In turn, `Cn1cc(-c2ccc(OC3CCCN(c4c(C#N)c(=O)n(C)c5ccccc45)CC3)cc2)cn1` (racemic) [Example 105, (rac)-1-methyl-4-{4-[4-(1-methyl-1H-pyrazol-4-yl)phenoxy]azepan-1-yl}-2-oxo-1,2-dihydroquinoline-3-carbonitrile] yielded an IC50 of 33 nM.
For `Cn1c(=O)c(C#N)c(N2CCC(Oc3ccc(OC(F)(F)F)cc3)CC2)c2ccc(Cl)cc21` [Example 64, 7-chloro-1-methyl-2-oxo-4-{4-[4-(trifluoromethoxy)phenoxy]piperidin-1-yl}-1,2-dihydroquinoline-3-carbonitrile], half-maximal inhibition (IC50) was put at 16 nM. This IC50 lies about 2.1-fold lower than the previous one.
With `Cn1c(=O)c(C#N)c(N2CCC(Oc3ccc(Br)cc3)CC2)c2ccccc21` [Example 8, 4-[4-(4-bromophenoxy)piperidin-1-yl]-1-methyl-2-oxo-1,2-dihydroquinoline-3-carbonitrile], the IC50 was found to be 13 nM.
In the case of `Cn1c(=O)c(C#N)c(N2CCC(Oc3cnc(C(F)(F)F)nc3)CC2)c2ccccc21` [Example 28, 1-methyl-2-oxo-4-(4-{[2-(trifluoromethyl)pyrimidin-5-yl]oxy}piperidin-1-yl)-1,2-dihydroquinoline-3-carbonitrile], inhibition was half-maximal at 521 nM (IC50). Compared with the last compound, the IC50 is about 40-fold higher.
Regarding `Cn1c(=O)c(C#N)c(N2CCC(Oc3ccc(OC(F)(F)F)cc3)CC2)c2cc(Br)ccc21` [Example 139, 6-bromo-1-methyl-2-oxo-4-{4-[4-(trifluoromethoxy)phenoxy]piperidin-1-yl}-1,2-dihydroquinoline-3-carbonitrile], the IC50 amounted to 2.5 nM.
Under `Cn1c(=O)c(C(N)=O)c(N2CCC(Oc3ccc(OC(F)F)cc3)CC2)c2ccccc21` [Example 52, 4-{4-[4-(difluoromethoxy)phenoxy]piperidin-1-yl}-1-methyl-2-oxo-1,2-dihydroquinoline-3-carboxamide] stands 3.8 nM; under `Cc1ccc2c(N3CCC(Oc4ccccc4)CC3)c(C#N)c(=O)n(C)c2c1` [Example 88, 1,7-dimethyl-2-oxo-4-(4-phenoxypiperidin-1-yl)-1,2-dihydroquinoline-3-carbonitrile], 5.8 nM.
To `Cc1ccc2c(N3CCC(Oc4ccc(OC(F)(F)F)cc4)CC3)c(C#N)c(=O)n(C)c2c1` [Example 67, 1,7-dimethyl-2-oxo-4-{4-[4-(trifluoromethoxy)phenoxy]piperidin-1-yl}-1,2-dihydroquinoline-3-carbonitrile] belongs 6.4 nM; to `Cn1c(=O)c(C#N)c(N2CCC(Oc3ccc(C(F)(F)F)cc3)CC2)c2ccccc21` [Example 13, 1-methyl-2-oxo-4-{4-[4-(trifluoromethyl)phenoxy]piperidin-1-yl}-1,2-dihydroquinoline-3-carbonitrile], 14 nM.
`COc1ccccc1COC1CCN(c2c(C#N)c(=O)n(C)c3ccccc23)CC1` [Example 117, 4-{4-[(2-methoxyphenyl)methoxy]piperidin-1-yl}-1-methyl-2-oxo-1,2-dihydroquinoline-3-carbonitrile]: it took 6 nM to reach half-maximal inhibition (IC50).
The compound `Cn1c(=O)c(C#N)c(N2CCC(Oc3ccc(Cl)cc3)CC2)c2ccccc21` [Example 10, 4-[4-(4-chlorophenoxy)piperidin-1-yl]-1-methyl-2-oxo-1,2-dihydroquinoline-3-carbonitrile] displayed a half-inhibitory concentration (IC50) of 10 nM.
The compound `Cn1c(=O)c(C(N)=O)c(N2CCC(Oc3ccc(OC(F)(F)F)cc3)CC2)c2ccccc21` [Example 48, 1-methyl-2-oxo-4-{4-[4-(trifluoromethoxy)phenoxy]piperidin-1-yl}-1,2-dihydroquinoline-3-carboxamide] had a half-inhibitory concentration (IC50) of 0.9 nM. This IC50 lies about 11-fold lower than the previous one.
Under `COc1cccc(OC2CCN(c3c(C(N)=O)c(=O)n(C)c4ccc(C)cc34)CC2)c1` [Example 159, 4-[4-(3-methoxyphenoxy)piperidin-1-yl]-1,6-dimethyl-2-oxo-1,2-dihydroquinoline-3-carboxamide] stands 12 nM; under `CN(C)c1ccc(OC2CCN(c3c(C#N)c(=O)n(C)c4ccccc34)CC2)cc1` [Example 45, 4-{4-[4-(dimethylamino)phenoxy]piperidin-1-yl}-1-methyl-2-oxo-1,2-dihydroquinoline-3-carbonitrile], 31 nM; under `Cn1c(=O)c(C#N)c(N2CCC(Cc3ccc(F)cc3)CC2)c2ccccc21` [Example 92, 4-{4-[(4-fluorophenyl)methyl]piperidin-1-yl}-1-methyl-2-oxo-1,2-dihydroquinoline-3-carbonitrile], 6.2 nM.
Compound `Cn1c(=O)c(C#N)c(N2CCCC(Oc3ccc(OC(F)(F)F)cc3)CC2)c2ccccc21` (single isomer, unassigned; enantiomer 1) [Example 101, 1-methyl-2-oxo-4-{4-[4-(trifluoromethoxy)phenoxy]azepan-1-yl}-1,2-dihydroquinoline-3-carbonitrile, enantiomer 1] showed a half-inhibitory concentration (IC50) of 7.4 nM.
In turn, `COc1ccc2c(N3CCC(Sc4ccccc4)CC3)c(C#N)c(=O)n(C)c2c1` [Example 90, 7-methoxy-1-methyl-2-oxo-4-[4-(phenylsulfanyl)piperidin-1-yl]-1,2-dihydroquinoline-3-carbonitrile] yielded a half-inhibitory concentration (IC50) of 1.7 nM.
`Cn1c(=O)c(C#N)c(N2CCC(COc3ccccc3Cl)CC2)c2ccccc21` [Example 120, 4-{4-[(2-chlorophenoxy)methyl]piperidin-1-yl}-1-methyl-2-oxo-1,2-dihydroquinoline-3-carbonitrile]: inhibition was half-maximal at 51 nM (IC50).
In the case of `Cn1c(=O)c(C#N)c(N2CCC(Oc3ccc(OC(F)(F)F)cc3)CC2)c2cc(Cl)ccc21` [Example 157, 6-chloro-1-methyl-2-oxo-4-{4-[4-(trifluoromethoxy)phenoxy]piperidin-1-yl}-1,2-dihydroquinoline-3-carbonitrile], the IC50 worked out at 1240 nM.
Consider `CCOC(=O)c1ccc(OC2CCN(c3c(C#N)c(=O)n(C)c4ccccc34)CC2)cc1` [Example 12, ethyl 4-{[1-(3-cyano-1-methyl-2-oxo-1,2-dihydroquinolin-4-yl)piperidin-4-yl]oxy}benzoate], for which it took 12 nM to reach half-maximal inhibition (IC50).
The compound `Cn1c(=O)c(C#N)c(N2CCC(OCc3ccc(F)cc3)CC2)c2ccccc21` [Example 110, 4-{4-[(4-fluorophenyl)methoxy]piperidin-1-yl}-1-methyl-2-oxo-1,2-dihydroquinoline-3-carbonitrile] had an IC50 of 5.3 nM.
Under `CCCCOc1ccc2c(N3CCC(Sc4ccccc4)CC3)c(C#N)c(=O)n(C)c2c1` [Example 69, 7-butoxy-1-methyl-2-oxo-4-[4-(phenylsulfanyl)piperidin-1-yl]-1,2-dihydroquinoline-3-carbonitrile] stands 507 nM.
In turn, `Cc1ccc(OC2CCN(c3c(C#N)c(=O)n(C)c4ccccc34)CC2)cc1` [Example 1, 1-methyl-4-[4-(4-methylphenoxy)piperidin-1-yl]-2-oxo-1,2-dihydroquinoline-3-carbonitrile] showed an IC50 of 4.2 nM.
On to `Cc1cccc(OC2CCN(c3c(C(N)=O)c(=O)n(C)c4ccc(C)cc34)CC2)c1` [Example 158, 1,6-dimethyl-4-[4-(3-methylphenoxy)piperidin-1-yl]-2-oxo-1,2-dihydroquinoline-3-carboxamide], for which it took 12 nM to reach half-maximal inhibition (IC50).
As for `Cn1c(=O)c(C#N)c(N2CCC(Oc3ccccc3)CC2)c2ccc(Br)cc21` [Example 54, 7-bromo-1-methyl-2-oxo-4-(4-phenoxypiperidin-1-yl)-1,2-dihydroquinoline-3-carbonitrile], it took 5.8 nM to reach half-maximal inhibition (IC50).
Under `Cn1c(=O)c(C#N)c(N2CCC(Oc3ccc(C4CC4)cc3)CC2)c2ccccc21` [Example 37, 4-[4-(4-cyclopropylphenoxy)piperidin-1-yl]-1-methyl-2-oxo-1,2-dihydroquinoline-3-carbonitrile] stands 10 nM.
Take `Cn1c(=O)c(C#N)c(N2CCC(C)(Oc3ccc([N+](=O)[O-])cc3)CC2)c2ccccc21` [Example 40, 1-methyl-4-[4-methyl-4-(4-nitrophenoxy)piperidin-1-yl]-2-oxo-1,2-dihydroquinoline-3-carbonitrile]: the IC50 is 11 nM.
Compound `COc1cccc(OC2CCN(c3c(C#N)c(=O)n(C)c4ccccc34)CC2)c1` [Example 4, 4-[4-(3-methoxyphenoxy)piperidin-1-yl]-1-methyl-2-oxo-1,2-dihydroquinoline-3-carbonitrile] yielded an IC50 of 6.3 nM.
Take `COc1ccc2c(N3CCC(Oc4ccc(Cl)cc4)CC3)c(C#N)c(=O)n(C)c2c1` [Example 65, 4-[4-(4-chlorophenoxy)piperidin-1-yl]-7-methoxy-1-methyl-2-oxo-1,2-dihydroquinoline-3-carbonitrile]: 7.3 nM corresponded to half-maximal inhibition (IC50).
